The text below walks through data of PMC10046693, “KI04 an Aminoglycosides-Derived Molecule Acts as an Inhibitor of Human Connexin46 Hemichannels Expressed in HeLa Cells” (Biomolecules, 2023).

Each structure is given as a SMILES string.

What is called IC50 is the concentration that inhibits the measured activity by half. A lower IC50 goes with greater potency.

The target in assay [1] is T1, Connexin46 (Cx46) hemichannel (Homo sapiens, UniProt Q9Y6H8).
T1 construct: gene GJA3; human Cx46tGFP (turbo GFP fusion) expressed in HeLa cells
In words: DAPI uptake dose response in Cx46tGFP HeLa cells. The format is cell-based.

The target of assay [2] is T1, Connexin46 (Cx46) hemichannel. In words: DAPI uptake dose response in Cx46tGFP HeLa cells; whole-cell patch clamp ([…] KI04 decreased currents). The format is cell-based. In general terms: In patch-clamp work, channel activity is measured electrically.

`NC[C@H]1O[C@H](O[C@H]2[C@H](O)[C@@H](O[C@H]3O[C@H](CO)[C@@H](O)[C@H](N)[C@H]3O)[C@H](N)C[C@@H]2N)[C@H](O)[C@@H](O)[C@@H]1O` [kanamycin]: the IC50 in assay [1] is 1.7 µM.

Regarding `CCCCCCCCCCCC(=O)NC[C@@H]1O[C@H](O[C@H]2[C@H](O)[C@@H](O[C@H]3O[C@H](CO)[C@@H](O)[C@H](N)[C@H]3O)[C@H](N)C[C@@H]2N)[C@H](O)[C@@H](O)[C@@H]1O` [KI04], the IC50 in assay [2] is roughly 7.7 µM.
